The subject of one assay is NCI/ADR-RES ovarian. In words: NCI-60 cell line screen, 48 h.
The subject of a further assay is HS 578T breast. In words: NCI-60 cell line screen, 48 h.

Molecules are shown by their SMILES. Where “and” joins values, the source holds several entries; their conditions need not be identical. Identical values can stand only once.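 48-hour exposure; five concentrations; linearly interpolated endpoints. GI50 is the concentration that inhibits growth by half. TGI: total growth inhibition.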

As to `CC(=O)O[C@]1(C(C)=O)CC[C@H]2[C@@H]3C=C(C)C4=CC(=O)CC[C@]4(C)[C@H]3CC[C@@]21C`, the GI50 in the assay with NCI/ADR-RES ovarian was 46.9 µM; with HS 578T breast, more than 60.4 µM. The TGI in the assay with NCI/ADR-RES ovarian and with HS 578T breast was more than 100 µM in each case.
On to `Cn1ccnc1C(=O)/C=C/c1ccccc1`, for which, in the assay on NCI/ADR-RES ovarian, the GI50 is 3.11 µM and the TGI amounted to 8.95 µM. Also, in the assay on HS 578T breast, the GI50 is 2.39 µM and the TGI amounted to 8.6 µM.
The matching figures for `CN(CC(=O)N(Cc1ccc(C2CCCCC2)cc1)c1ccc(C(=O)O)c(O)c1)S(=O)(=O)c1c(F)c(F)c(F)c(F)c1F`: 17.2 µM, 38.1 µM, 6.92 µM and 35.1 µM.
On to `CCCCCCCCCc1cccc(N2C(N)=NC(N)=NC2(C)C)c1`, for which the figures for the TGI with NCI/ADR-RES ovarian and in the assay on HS 578T breast were 24.9 µM and 6.48 µM, respectively.
Take `CN1CCN(c2ccc3nc(-c4ccc5nc(-c6ccc(OCCC(C)(C)C)cc6)[nH]c5c4)[nH]c3c2)CC1`: in the assay on NCI/ADR-RES ovarian, the GI50 was 35.7 µM and the TGI was more than 100 µM. Also, in the assay with HS 578T breast, the GI50 was 10.5 µM and the TGI amounted to 37.1 µM.
The matching figures for `CC1(C)[C@@H](O[C@@H]2OC[C@@H](O[C@@H]3O[C@H](CO)[C@@H](O)[C@H](O)[C@H]3O[C@@H]3OC[C@@H](O)[C@H](O)[C@H]3O)[C@H](O)[C@H]2O[C@@H]2O[C@H](CO)[C@@H](O)[C@H](O)[C@H]2O)CC[C@]2(C)[C@H]3CC[C@]45OC[C@@]6(CC[C@](C)(C=O)C[C@H]64)[C@H](O)C[C@@]5(C)[C@]3(C)CC[C@@H]12`: 1.24 µM, 3.43 µM, 0.995 µM and 2.4 µM.
As for `C[C@@H](CO)[C@@H]1CCC=C2CC[C@]3(C)[C@H](CC[C@@H]4[C@@]5(C)CCCNC(C)(C)[C@@H]5CC[C@]43C)[C@H]21`, in the assay with NCI/ADR-RES ovarian, the GI50 was 2.05 µM and the TGI amounted to 4.45 µM. Moreover, in the assay on HS 578T breast, the GI50 was 2.08 µM and the TGI was 5.19 µM.
On to `O=C(/C=C/c1cc([N+](=O)[O-])ccc1Cl)c1ccccc1`, for which, in the assay on NCI/ADR-RES ovarian, the GI50 is 24.4 µM and the TGI is 91.7 µM. Besides, in the assay on HS 578T breast, the GI50 was 21.2 µM and the TGI came out at 61.7 µM.
Taken in the same sequence, the figures for `COc1cc2c(cc1Nc1nc(Nc3ccsc3C(N)=O)c3cc[nH]c3n1)N(C(=O)CN(C)C)CCC2(C)C` were 2.01 µM, 8.49 µM, 1.11 µM and 5.13 µM.
For the compound `O=C(Nc1ccccc1)NS(=O)(=O)c1ccc(-n2nc3c(c2-c2ccc(Cl)cc2)Cc2ccccc2-3)cc1`, in the assay on HS 578T breast, the GI50 is 19.6 µM and the TGI was 82.3 µM.
Consider `CCC1CCc2nc3sc(C(=O)Nc4cccc(F)c4)c(N)c3cc2C1` (centres undefined), for which the GI50 in the assay on NCI/ADR-RES ovarian and in the assay with HS 578T breast was more than 100 µM throughout. For the same compound, the TGI in the assay with NCI/ADR-RES ovarian and with HS 578T breast was more than 100 µM each time.
Consider `O=[N+]([O-])c1c(Br)sc(Br)c1[N+](=O)[O-]`, for which, in the assay with NCI/ADR-RES ovarian, the GI50 was 3.3 µM and the TGI was 23.8 µM. In the assay with HS 578T breast, the GI50 is 2.59 µM and the TGI amounted to 9.53 µM.
The matching figures for `Nc1nc(-c2ccccc2)nc(N)c1N=O`: 6.44 µM, 59.6 µM, 8.14 µM and more than 100 µM.
Taken in the same sequence, the figures for `COc1cc(O)c(C(=O)/C=C/c2ccc(O)cc2)c(O)c1[C@@H]1C[C@H](CCc2ccc(O)cc2)O[C@H](c2ccc(O)cc2)C1` were 3.72 µM, 14.4 µM, 3.34 µM and 16.6 µM.
Taken in the same sequence, the figures for `CN1c2ccccc2C(C)(C)C12C=Cc1cc(O)ccc1O2` (centres undefined) were 1.96 µM, 7.14 µM, 1.97 µM and 5.17 µM.
For the compound `Cc1cc(N(CCNc2ccnc3cc(Cl)ccc23)Cc2ccco2)nc(Cl)n1`, the GI50 is 1.86 µM with NCI/ADR-RES ovarian and 2.43 µM in the assay with HS 578T breast. Also, the TGI in the assay with NCI/ADR-RES ovarian amounted to 3.96 µM; with HS 578T breast it was 6.28 µM.
Taken in the same sequence, the figures for `COc1ccc(Nc2c3ccccc3nc3ccccc23)cc1` were 0.545 µM, 5.26 µM, 15.5 µM and 27.5 µM.
Taken in the same sequence, the figures for `CC(=Nc1ccccc1)C1=C(O)C(Cc2ccccc2)NC1=O` (centres undefined) were 0.03 µM, 0.0354 µM, 0.117 µM and more than 100 µM.
In the case of `CC[C@@H](C(=O)[C@@H](C)[C@@H](O)[C@H](C)[C@@H]1O[C@@H]([C@@H](CC)C(=O)N(CC)CC)CC[C@@H]1C)C1O[C@]2(C=CC(=O)[C@]3(CC[C@@](C)([C@H]4CC[C@](O)(CC)[C@H](C)O4)O3)O2)[C@H](C)C[C@@H]1C` (some centres undefined), in the assay with NCI/ADR-RES ovarian, the GI50 was 2.82 µM and the TGI turned out to be 26.9 µM. Moreover, in the assay with HS 578T breast, the GI50 is 2.68 µM and the TGI was 16.1 µM.
On to `CC(C)CCN=C(N)c1ccc(N2CCN(c3ccc(C(N)=NCCC(C)C)cc3)CC2)cc1`, for which, in the assay with NCI/ADR-RES ovarian, the GI50 was 61.4 µM and the TGI was more than 100 µM.
For the compound `N#CSCC1CC(O)(c2ccccc2)CC(c2ccc(F)cc2)O1` (centres undefined), the GI50 in the assay on NCI/ADR-RES ovarian is 1.92 µM; in the assay on HS 578T breast it was 1.96 µM. Moreover, the results for the TGI in the assay on NCI/ADR-RES ovarian and in the assay with HS 578T breast were 4.77 µM and 4.6 µM, respectively.
The matching figures for `COc1cc2c(cc1C)NC(=O)/C2=C\c1cccc(Oc2ccccc2)c1`: 12.9 µM, 39.1 µM, 32.4 µM and 89.8 µM.
Taken in the same sequence, the figures for `NC(=O)c1cc(-c2ccc(F)cc2)cc(-c2ccncc2)c1N` were more than 25 µM, 5.66 µM, more than 25 µM and more than 23.4 µM.
Regarding `COc1cc(Nc2ccnc(NCCCNc3ccnc4cc(Cl)ccc34)n2)cc(OC)c1`, in the assay with NCI/ADR-RES ovarian, the GI50 was 2.9 µM and the TGI was 12.5 µM.
On to `COc1cc(/C=C/C(=O)c2ccc(NC(=O)CN3CCN(c4cc5c(cc4F)c(=O)c(C(=O)O)cn5C4CC4)CC3)cc2)cc(OC)c1OC`, for which the values for the GI50 with NCI/ADR-RES ovarian and with HS 578T breast were more than 75.9 µM and 16.3 µM, respectively. The TGI in the assay on NCI/ADR-RES ovarian and with HS 578T breast was more than 100 µM throughout.
Turning to `COC(=O)C1=C(C)NC(C)=C(C(=O)OC)C1/C=C(Cl)/C=C/c1ccccc1`, in the assay on NCI/ADR-RES ovarian, the GI50 is 18.4 µM and the TGI was determined as 44.3 µM. In the assay on HS 578T breast, the GI50 is 38.4 µM and the TGI is more than 100 µM.
`NC(=O)c1ccc2nc(-c3ccc(Oc4ccc(Cl)cc4)cc3)[nH]c2c1`: in the assay on NCI/ADR-RES ovarian, the GI50 was > 75 µM and 13.3 µM; the TGI is > 75 µM and 32.9 µM. For the same compound, in the assay with HS 578T breast, the GI50 is 24.2 µM and 16.5 µM; the TGI is 75 µM and 42.6 µM.
Take `Nc1nc(-c2ccc(F)cc2)c(-c2ccc3ncccc3n2)s1`: in the assay on NCI/ADR-RES ovarian, the GI50 is 21.7 µM and the TGI was more than 25 µM. Moreover, in the assay with HS 578T breast, the GI50 is 9.61 µM and the TGI is more than 25 µM.
Turning to `COc1cc(C2=C(C#Cc3ccccc3)COC2=O)cc(OC)c1OC`, in the assay with NCI/ADR-RES ovarian, the GI50 was 5.43 µM and the TGI was 22.2 µM.
As for `C=C1CCC2C(C)(C)CCC[C@]2(C)[C@H]1CO` (some centres undefined), in the assay with NCI/ADR-RES ovarian, the GI50 was 60.3 µM and the TGI is more than 100 µM. Further, in the assay with HS 578T breast, the GI50 is more than 100 µM and the TGI is more than 100 µM.
Turning to `Cc1c(COc2cc(OCc3cccc(C#N)c3)c(CN3C[C@H](O)C[C@@H]3C(=O)O)cc2Cl)cccc1-c1ccc2c(c1)OCCO2`, in the assay on NCI/ADR-RES ovarian, the GI50 was 47.5 µM and the TGI is more than 100 µM. In the assay with HS 578T breast, the GI50 is 21 µM and the TGI was determined as 53.1 µM.
For `COc1ccc2c(c1)C(=O)c1c-2c(Nc2ccc(Cl)cc2)nc2ccccc12`, in the assay on NCI/ADR-RES ovarian, the GI50 is 16.6 µM and the TGI was more than 100 µM. Besides, in the assay with HS 578T breast, the GI50 was 2.58 µM and the TGI amounted to 8.82 µM.
With `Cc1cccc2c(=O)c3c(sc12)c(NCCNCCO)nc1ccccc13`, in the assay on HS 578T breast, the GI50 is 1.62 µM and the TGI is 3.74 µM.
Take `COc1ccc(OC)c(/C=C(/C)[N+](=O)[O-])c1`: in the assay with NCI/ADR-RES ovarian, the GI50 is 3.22 µM and the TGI amounted to 11.5 µM. For the same compound, in the assay on HS 578T breast, the GI50 is 3.47 µM and the TGI came out at 22.9 µM.
Take `Nc1nc(-c2ccccc2)nc2c1[n+]([O-])c1ccccc1[n+]2[O-]`: the TGI in the assay with NCI/ADR-RES ovarian and with HS 578T breast was more than 100 µM in each case.
Turning to `COc1cc2c3c(n(CCCI)c(=O)c2cc1OC)-c1cc2c(cc1C3=O)OCO2`, in the assay on NCI/ADR-RES ovarian, the GI50 is 27.3 µM and the TGI was more than 100 µM. For the same compound, in the assay with HS 578T breast, the GI50 was more than 100 µM and the TGI was more than 100 µM.
On to `CCNC(=O)c1cc2c(-c3cc(C(C)(C)O)ccc3Oc3c(C)cc(F)cc3C)cn(C)c(=O)c2[nH]1`, for which, in the assay with NCI/ADR-RES ovarian, the GI50 was 7.49 µM and the TGI was 23.2 µM. For the same compound, in the assay on HS 578T breast, the GI50 was 0.753 µM and the TGI came out at 21.5 µM.

The record behind these values is PubChem BioAssay (NCI).
